A word on the EC50: it is the concentration that produces a half-maximal response. Higher therefore signals weaker potency. For orientation: IC50 means the midpoint of a concentration-inhibition curve. Broadly, the inhibition is how much of the control response was suppressed.

3 molecules from ChEMBL document CHEMBL4834393, “Building a Chemical Toolbox for Human Pregnane X Receptor Research: Discovery of Agonists, Inverse Agonists, and Antagonists Among Analogs Based on the Unique Chemical Scaffold of SPA70” (J Med Chem, 2021) can be followed below.

In data set [1] the target is T1, Vitamin D3 receptor (Homo sapiens) (UniProt P11473).
T1 sequence (whole entry): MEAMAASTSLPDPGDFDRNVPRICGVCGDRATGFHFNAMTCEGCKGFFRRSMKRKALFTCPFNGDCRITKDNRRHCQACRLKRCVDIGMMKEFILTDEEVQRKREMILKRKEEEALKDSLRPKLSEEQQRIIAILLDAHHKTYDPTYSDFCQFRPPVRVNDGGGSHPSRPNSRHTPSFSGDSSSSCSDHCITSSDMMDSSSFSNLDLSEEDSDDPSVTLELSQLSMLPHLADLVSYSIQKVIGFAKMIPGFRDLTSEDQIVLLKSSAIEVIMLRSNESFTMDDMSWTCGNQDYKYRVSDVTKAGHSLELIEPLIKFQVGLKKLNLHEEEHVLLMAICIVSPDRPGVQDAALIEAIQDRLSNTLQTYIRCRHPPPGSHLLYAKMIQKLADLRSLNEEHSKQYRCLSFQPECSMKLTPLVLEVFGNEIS
In words: Antagonist activity at human VDR expressed in HEK293T cells in presence of 1alpha,25-dihydroxyvitamin D3 by luciferase reporter assay. Type of data set: cell-based. For orientation: A reporter such as luciferase makes a cellular process visible.

In data set [2] the target is T2, Nuclear receptor subfamily 1 group I member 2 (Homo sapiens, UniProt O75469).
T2 sequence (O75469 whole entry): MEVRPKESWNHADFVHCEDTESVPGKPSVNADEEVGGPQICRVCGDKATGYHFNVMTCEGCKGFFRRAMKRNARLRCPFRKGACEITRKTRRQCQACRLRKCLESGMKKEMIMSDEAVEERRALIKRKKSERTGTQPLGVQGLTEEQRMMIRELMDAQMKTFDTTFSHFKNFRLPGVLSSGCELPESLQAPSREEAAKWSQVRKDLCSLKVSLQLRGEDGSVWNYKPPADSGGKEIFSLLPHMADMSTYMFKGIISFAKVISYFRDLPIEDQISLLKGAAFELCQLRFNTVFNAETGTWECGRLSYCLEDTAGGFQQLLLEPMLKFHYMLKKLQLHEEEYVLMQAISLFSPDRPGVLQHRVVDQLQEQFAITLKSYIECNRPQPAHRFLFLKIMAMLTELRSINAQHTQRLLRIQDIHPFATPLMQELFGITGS
In words: Agonist activity at human PXR expressed in HepG2 cells co-expressing luciferase gene under control of CYP3A4 promoter incubated for 24 hrs by luciferase reporter assay.

Data set [3] deals with T2, Nuclear receptor subfamily 1 group I member 2. In words: Displacement of BODIPY FL vindoline from GST-tagged human PXR LBD incubated for 60 mins by TR-FRET assay. (In general: In TR-FRET formats the signal depends on donor and acceptor labels being close together.)
For data set [4], the system named is HepG2. In words: Cytotoxicity against human HepG2 cells co-expressing luciferase gene under control of CYP3A4 promoter measured after 24 hrs by CellTiter-Glo luminescent cell viability assay. The format is ADME, cell-based. Conditions: human, hepg2, 24 h; time 24 hrs.
Data set [5] concerns the target T1, Vitamin D3 receptor (Homo sapiens). The data set can be described thus: Agonist activity at human VDR expressed in HEK293T cells by luciferase reporter assay. The format is cell-based.
In data set [6] the target is T3, PXR (NR1I2) (Homo sapiens, UniProt O75469).
T3 sequence (O75469 whole entry): T2 sequence (O75469 whole entry)
In words: Agonist activity at human PXR expressed in HepG2 cells co-expressing luciferase gene under control of CYP3A4 promoter at 10 uM incubated for 24 hrs by luciferase reporter assay relative to control.

Data set [7] has as its target T4, Nuclear receptor subfamily 1 group I member 2 (Mus musculus, UniProt O54915).
T4 sequence (O54915 whole entry): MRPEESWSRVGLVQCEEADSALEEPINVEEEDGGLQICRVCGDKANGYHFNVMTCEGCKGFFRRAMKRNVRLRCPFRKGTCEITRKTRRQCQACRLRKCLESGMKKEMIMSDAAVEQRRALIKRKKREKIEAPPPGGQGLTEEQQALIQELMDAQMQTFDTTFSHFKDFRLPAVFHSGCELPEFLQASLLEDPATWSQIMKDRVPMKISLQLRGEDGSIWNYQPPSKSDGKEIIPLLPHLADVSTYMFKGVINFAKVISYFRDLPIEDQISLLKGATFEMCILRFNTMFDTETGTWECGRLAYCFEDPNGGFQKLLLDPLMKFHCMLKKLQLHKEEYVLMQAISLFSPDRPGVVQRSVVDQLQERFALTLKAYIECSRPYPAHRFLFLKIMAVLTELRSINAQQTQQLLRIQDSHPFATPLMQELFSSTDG
In words: Agonist activity at mouse PXR by luciferase reporter assay. The format is ADME.

The target of data set [8] is T5, Bile acid receptor (Homo sapiens) (UniProt Q96RI1).
T5 sequence (whole entry): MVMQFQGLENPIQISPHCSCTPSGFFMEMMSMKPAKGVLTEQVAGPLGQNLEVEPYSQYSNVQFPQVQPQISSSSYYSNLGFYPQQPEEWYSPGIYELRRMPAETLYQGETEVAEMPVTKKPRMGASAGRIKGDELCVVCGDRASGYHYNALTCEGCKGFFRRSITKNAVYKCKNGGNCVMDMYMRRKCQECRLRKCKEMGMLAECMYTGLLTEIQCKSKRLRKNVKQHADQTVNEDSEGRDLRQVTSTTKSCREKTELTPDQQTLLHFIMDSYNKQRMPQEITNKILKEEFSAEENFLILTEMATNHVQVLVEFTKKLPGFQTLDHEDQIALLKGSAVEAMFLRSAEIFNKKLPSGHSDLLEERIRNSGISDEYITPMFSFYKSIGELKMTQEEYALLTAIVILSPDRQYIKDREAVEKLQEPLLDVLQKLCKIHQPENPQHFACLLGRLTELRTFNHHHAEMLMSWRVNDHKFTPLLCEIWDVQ
In words: Agonist activity at human FXR expressed in HEK293T cells by luciferase reporter assay. Type of data set: cell-based.

Data set [9] addresses T3, PXR (NR1I2). The data set can be described thus: Displacement of BODIPY FL vindoline from GST-tagged human PXR LBD at 10 uM incubated for 60 mins by TR-FRET assay relative to control. To be noted: GST-tagged human PXR LBD (recombinant protein), probe BODIPY FL vindoline.
In data set [10] the target is T4, Nuclear receptor subfamily 1 group I member 2. The data set can be described thus: Antagonist activity at mouse PXR in presence of PCN by luciferase reporter assay.
Data set [11] has as its target T5, Bile acid receptor (Homo sapiens). In words: Antagonist activity at human FXR expressed in HEK293T cells in presence of GW4064 by luciferase reporter assay. The format is cell-based.
The subject of data set [12] is constitutive androstane receptor, NR1I3 (Homo sapiens). The data set can be described thus: Agonist activity at human CAR by luciferase reporter assay.
The target of data set [13] is T3, PXR (NR1I2). The data set can be described thus: Inhibition of human PXR expressed in HepG2 cells co-expressing luciferase gene under control of CYP3A4 promoter at 10 uM incubated for 24 hrs in presence of 5 uM rifampicin by luciferase reporter assay relative to control. The format is cell-based.
Data set [14] has as its target T2, Nuclear receptor subfamily 1 group I member 2. The data set can be described thus: Antagonist activity at human PXR expressed in HepG2 cells co-expressing luciferase gene under control of CYP3A4 promoter incubated for 24 hrs in presence of 5 uM rifampicin by luciferase reporter assay.

Calls of active or inactive are those of the source. The calls are words filed in the database; no cut-off is given here.

Turning to `COc1ccc(Cl)cc1-n1nnc(S(=O)(=O)c2ccc(C(C)(C)C)cc2)c1C#N`, the Activity result in data set [1], in data set [5], in data set [8], in [11] and in [12] was “inactive” each time. This molecule also showed an EC50 in data set [2] of 0.08 µM. Also, in [3], the IC50 came out at 0.061 µM. The results for the Activity entry in [4], in [7] and in data set [10] were “Non-Toxic”, “Not Active” and “Not Active”, respectively. Also, the activity at 24 h, 10 µM in data set [6] worked out at 105%. Besides, the inhibition at 1 h, 10 µM in data set [9] turned out to be 90%.
Regarding `CCc1c(S(=O)(=O)c2ccc(C(C)(C)C)cc2)nnn1-c1cc(OC)ccc1OC`, the Activity result is given as “Non-Toxic” in data set [4], “Not Active” in [7] and “Not Active” in data set [10]. Also, in data set [12], the Activity entry is “inactive”.
For `COc1ccc(F)cc1-n1nnc(S(=O)(=O)c2ccc(C(C)(C)C)cc2)c1C`, the Activity entry in data set [1], in data set [5], in data set [8], in data set [11] and in data set [12] was “inactive” throughout. For the same molecule, in data set [2], the EC50 came out at 0.24 µM. Further, the results for the IC50 in data set [3] and in data set [14] were 0.4 µM and 0.7 µM, respectively. In addition, the Activity entry in [4] was “Non-Toxic”; in data set [10] it was “Not Active”. Further, in data set [13], the inhibition at 24 h, 10 µM was determined as 70%. In [6], the activity at 24 h, 10 µM came to 37%. In addition, the inhibition at 1 h, 10 µM in [9] worked out at 80%.
